PubChem BioAssay (NCI)
Where “and” joins values, the source holds several entries; their conditions need not be identical. Equal values may be shown once.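 How tested: cells in 96-well plates exposed to compound for 48 hours at five concentrations. TGI: concentration producing complete growth inhibition.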

Key:
Experiment in all cases: NCI-60 cell line screen, 48 h
786-0 renal = test system: 786-0 renal
A498 renal = test system: A498 renal
A549 NSCLC = test system: A549 NSCLC
ACHN renal = test system: ACHN renal
CAKI-1 renal = test system: CAKI-1 renal
CCRF-CEM leukemia = test system: CCRF-CEM leukemia
COLO 205 colon = test system: COLO 205 colon
DLD-1 colon = test system: DLD-1 colon
DMS 114 small cell lung = test system: DMS 114 small cell lung
DMS 273 small cell lung = test system: DMS 273 small cell lung
EKVX NSCLC = test system: EKVX NSCLC
HCC-2998 colon = test system: HCC-2998 colon
HCT-116 colon = test system: HCT-116 colon
HCT-15 colon = test system: HCT-15 colon
HL-60(TB) leukemia = test system: HL-60(TB) leukemia
HOP-18 NSCLC = test system: HOP-18 NSCLC
HOP-62 NSCLC = test system: HOP-62 NSCLC
HOP-92 NSCLC = test system: HOP-92 NSCLC
HT29 colon = test system: HT29 colon
IGROV1 ovarian = test system: IGROV1 ovarian
K-562 leukemia = test system: K-562 leukemia
KM12 colon = test system: KM12 colon
KM20L2 colon = test system: KM20L2 colon
LOX IMVI melanoma = test system: LOX IMVI melanoma
LXFL 529 NSCLC = test system: LXFL 529 NSCLC
M14 melanoma = test system: M14 melanoma
M19-MEL melanoma = test system: M19-MEL melanoma
MALME-3M melanoma = test system: MALME-3M melanoma
MOLT-4 leukemia = test system: MOLT-4 leukemia
NCI-H226 lung = test system: NCI-H226 lung
NCI-H23 lung = test system: NCI-H23 lung
NCI-H460 lung = test system: NCI-H460 lung
NCI-H522 lung = test system: NCI-H522 lung
OVCAR-3 ovarian = test system: OVCAR-3 ovarian
OVCAR-4 ovarian = test system: OVCAR-4 ovarian
OVCAR-5 ovarian = test system: OVCAR-5 ovarian
OVCAR-8 ovarian = test system: OVCAR-8 ovarian
RXF 393 renal = test system: RXF 393 renal
RXF-631 renal = test system: RXF-631 renal
SF-268 CNS = test system: SF-268 CNS
SF-295 CNS = test system: SF-295 CNS
SF-539 CNS = test system: SF-539 CNS
SK-MEL-2 melanoma = test system: SK-MEL-2 melanoma
SK-MEL-28 melanoma = test system: SK-MEL-28 melanoma
SK-MEL-5 melanoma = test system: SK-MEL-5 melanoma
SK-OV-3 ovarian = test system: SK-OV-3 ovarian
SN12C renal = test system: SN12C renal
SNB-19 CNS = test system: SNB-19 CNS
SNB-75 CNS = test system: SNB-75 CNS
SNB-78 CNS = test system: SNB-78 CNS
SR leukemia = test system: SR leukemia
SW-620 colon = test system: SW-620 colon
TK-10 renal = test system: TK-10 renal
U251 CNS = test system: U251 CNS
UACC-257 melanoma = test system: UACC-257 melanoma
UACC-62 melanoma = test system: UACC-62 melanoma
UO-31 renal = test system: UO-31 renal
XF 498 CNS = test system: XF 498 CNS
RPMI-8226 leukemia = test system: RPMI-8226 leukemia

CCOC(=O)C1=C(NC(C)(C)C)OC/C1=N\NC(=O)Cc1ccccc1
TGI (786-0 renal): > 100 µM
TGI (A498 renal): > 100 µM
TGI (A549 NSCLC): > 100 µM
TGI (ACHN renal): > 100 µM
TGI (CAKI-1 renal): > 100 µM
TGI (CCRF-CEM leukemia): > 100 µM
TGI (COLO 205 colon): > 100 µM
TGI (DLD-1 colon): > 100 µM
TGI (DMS 114 small cell lung): > 100 µM
TGI (DMS 273 small cell lung): > 100 µM
TGI (EKVX NSCLC): > 100 µM
TGI (HCC-2998 colon): > 100 µM
TGI (HCT-116 colon): > 100 µM
TGI (HCT-15 colon): > 100 µM
TGI (HL-60(TB) leukemia): > 100 µM
TGI (HOP-18 NSCLC): > 100 µM
TGI (HOP-62 NSCLC): > 100 µM
TGI (HOP-92 NSCLC): > 100 µM
TGI (HT29 colon): > 100 µM
TGI (IGROV1 ovarian): > 100 µM
TGI (K-562 leukemia): > 100 µM
TGI (KM12 colon): > 100 µM
TGI (KM20L2 colon): > 100 µM
TGI (LOX IMVI melanoma): > 100 µM
TGI (LXFL 529 NSCLC): > 100 µM
TGI (M14 melanoma): > 100 µM
TGI (M19-MEL melanoma): > 100 µM
TGI (MALME-3M melanoma): > 100 µM
TGI (MOLT-4 leukemia): > 100 µM
TGI (NCI-H226 lung): > 100 µM
TGI (NCI-H23 lung): > 100 µM
TGI (NCI-H460 lung): > 100 µM
TGI (NCI-H522 lung): > 100 µM
TGI (OVCAR-3 ovarian): > 100 µM
TGI (OVCAR-4 ovarian): > 100 µM
TGI (OVCAR-5 ovarian): > 100 µM
TGI (OVCAR-8 ovarian): > 100 µM
TGI (RXF 393 renal): > 100 µM
TGI (RXF-631 renal): > 100 µM
TGI (SF-268 CNS): > 100 µM
TGI (SF-295 CNS): > 100 µM
TGI (SF-539 CNS): > 100 µM
TGI (SK-MEL-2 melanoma): > 100 µM
TGI (SK-MEL-28 melanoma): > 100 µM
TGI (SK-MEL-5 melanoma): > 100 µM
TGI (SK-OV-3 ovarian): > 100 µM
TGI (SN12C renal): > 100 µM
TGI (SNB-19 CNS): > 100 µM
TGI (SNB-75 CNS): > 100 µM
TGI (SNB-78 CNS): > 100 µM
TGI (SR leukemia): > 100 µM
TGI (SW-620 colon): > 100 µM
TGI (TK-10 renal): > 100 µM
TGI (U251 CNS): > 100 µM
TGI (UACC-257 melanoma): > 100 µM
TGI (UACC-62 melanoma): > 100 µM
TGI (UO-31 renal): > 100 µM
TGI (XF 498 CNS): > 100 µM

O=C(CC1C(=O)Nc2ccccc2S1=O)Nc1ccccc1 (stereo unspecified)
TGI (786-0 renal): > 100 µM
TGI (A498 renal): > 100 µM
TGI (A549 NSCLC): > 100 µM
TGI (ACHN renal): > 100 µM
TGI (CAKI-1 renal): > 100 µM
TGI (CCRF-CEM leukemia): > 100 µM
TGI (COLO 205 colon): > 100 µM
TGI (DLD-1 colon): > 100 µM
TGI (DMS 114 small cell lung): > 100 µM
TGI (DMS 273 small cell lung): > 100 µM
TGI (EKVX NSCLC): > 100 µM
TGI (HCC-2998 colon): > 100 µM
TGI (HCT-116 colon): > 100 µM
TGI (HCT-15 colon): > 100 µM
TGI (HL-60(TB) leukemia): > 100 µM
TGI (HOP-18 NSCLC): > 100 µM
TGI (HOP-62 NSCLC): > 100 µM
TGI (HOP-92 NSCLC): > 100 µM
TGI (HT29 colon): > 100 µM
TGI (IGROV1 ovarian): > 100 µM
TGI (KM12 colon): > 100 µM
TGI (KM20L2 colon): > 100 µM
TGI (LXFL 529 NSCLC): > 100 µM
TGI (M14 melanoma): > 100 µM
TGI (M19-MEL melanoma): > 100 µM
TGI (MALME-3M melanoma): > 100 µM
TGI (MOLT-4 leukemia): > 100 µM
TGI (NCI-H226 lung): > 100 µM
TGI (NCI-H23 lung): > 100 µM
TGI (NCI-H460 lung): > 100 µM
TGI (NCI-H522 lung): > 100 µM
TGI (OVCAR-3 ovarian): > 100 µM
TGI (OVCAR-4 ovarian): > 100 µM
TGI (OVCAR-5 ovarian): > 100 µM
TGI (OVCAR-8 ovarian): > 100 µM
TGI (RXF 393 renal): 45 µM
TGI (RXF-631 renal): > 100 µM
TGI (SF-268 CNS): > 100 µM
TGI (SF-295 CNS): > 100 µM
TGI (SF-539 CNS): > 100 µM
TGI (SK-MEL-2 melanoma): > 100 µM
TGI (SK-MEL-28 melanoma): > 100 µM
TGI (SK-MEL-5 melanoma): > 100 µM
TGI (SK-OV-3 ovarian): 62.6 µM
TGI (SN12C renal): > 100 µM
TGI (SNB-19 CNS): > 100 µM
TGI (SNB-75 CNS): > 100 µM
TGI (SNB-78 CNS): > 100 µM
TGI (SR leukemia): > 100 µM
TGI (SW-620 colon): > 100 µM
TGI (TK-10 renal): > 100 µM
TGI (U251 CNS): > 100 µM
TGI (UACC-257 melanoma): > 100 µM
TGI (UACC-62 melanoma): > 100 µM
TGI (UO-31 renal): > 100 µM
TGI (XF 498 CNS): > 100 µM

O=S(=O)(O)SC/C=C\CSS(=O)(=O)O
TGI (786-0 renal): > 100 µM
TGI (A498 renal): > 100 µM
TGI (A549 NSCLC): > 100 µM
TGI (ACHN renal): > 100 µM
TGI (CAKI-1 renal): > 100 µM
TGI (COLO 205 colon): > 100 µM
TGI (DLD-1 colon): > 100 µM
TGI (DMS 114 small cell lung): > 100 µM
TGI (DMS 273 small cell lung): > 100 µM
TGI (EKVX NSCLC): > 100 µM
TGI (HCC-2998 colon): > 100 µM
TGI (HCT-116 colon): > 100 µM
TGI (HCT-15 colon): > 100 µM
TGI (HL-60(TB) leukemia): > 100 µM
TGI (HOP-18 NSCLC): > 100 µM
TGI (HOP-62 NSCLC): > 100 µM
TGI (HOP-92 NSCLC): > 100 µM
TGI (HT29 colon): > 100 µM
TGI (IGROV1 ovarian): > 100 µM
TGI (K-562 leukemia): > 100 µM
TGI (KM12 colon): > 100 µM and 61.2 µM
TGI (KM20L2 colon): > 100 µM
TGI (LOX IMVI melanoma): > 100 µM
TGI (LXFL 529 NSCLC): > 100 µM
TGI (M14 melanoma): > 100 µM
TGI (M19-MEL melanoma): > 100 µM
TGI (MALME-3M melanoma): > 100 µM
TGI (MOLT-4 leukemia): > 100 µM
TGI (NCI-H226 lung): > 100 µM
TGI (NCI-H23 lung): > 100 µM
TGI (NCI-H460 lung): > 100 µM
TGI (NCI-H522 lung): > 100 µM
TGI (OVCAR-3 ovarian): > 100 µM
TGI (OVCAR-4 ovarian): > 100 µM
TGI (OVCAR-5 ovarian): > 100 µM
TGI (OVCAR-8 ovarian): > 100 µM
TGI (RPMI-8226 leukemia): > 100 µM
TGI (RXF 393 renal): > 100 µM
TGI (RXF-631 renal): > 100 µM
TGI (SF-268 CNS): > 100 µM
TGI (SF-295 CNS): > 100 µM
TGI (SF-539 CNS): > 100 µM
TGI (SK-MEL-28 melanoma): > 100 µM
TGI (SK-MEL-5 melanoma): > 100 µM
TGI (SK-OV-3 ovarian): > 100 µM
TGI (SN12C renal): > 100 µM
TGI (SNB-19 CNS): > 100 µM
TGI (SNB-75 CNS): > 100 µM
TGI (SNB-78 CNS): > 100 µM
TGI (SR leukemia): > 100 µM
TGI (SW-620 colon): > 100 µM
TGI (TK-10 renal): > 100 µM
TGI (U251 CNS): > 100 µM
TGI (UACC-257 melanoma): > 100 µM
TGI (UACC-62 melanoma): > 100 µM
TGI (UO-31 renal): > 100 µM
TGI (XF 498 CNS): > 100 µM
